Assay results published in US20090285773A1, “Hepatitis C Virus Inhibitors” (Bristol-Myers Squibb Company, priority 2008, published 2009).

Experiments:
[1] = target: porcine pancreatic elastase (PPE) (Sus scrofa, UniProt P00772); assay: Specificity assay, porcine pancreatic elastase; type: biochemical; conditions: read-out: PPE activity in the specificity assays
Experimental: The specificities of compounds of the present disclosure were determined against a variety of serine proteases: human neutrophil elastase (HNE), porcine pancreatic elastase (PPE) and human pancreatic chymotrypsin and one cysteine protease: human liver cathepsin B. In all cases a 96-well plate format protocol using a fluorometric Amino-Methyl-Coumarin (AMC) substrate specific for each enzyme was used as described previously (PCT Patent Application No. WO 00/09543) with some modifications to the serine protease assays. All enzymes were purchased from Sigma, EMDbiosciences while the substrates were from Bachem, Sigma and EMDbiosciences.
Compound concentrations varied from 100 to 0.4 μM depending on their potency. The enzyme assays were each initiated by addition of substrate to enzyme-inhibitor pre-incubated for 10 min at room temperature and hydrolysis to 15% conversion as measured on cytofluor. […]
The percentage of inhibition was calculated using the formula: […]

NS3/4A protease complex = target: T1, NS3/4A protease complex (UniProt P27958); assay: HCV NS3/4A protease complex enzyme assay (strain not stated); type: biochemical; conditions: Table 2; strain and unit inferred
T1 construct: fused on or other part: three-lysine solubilising tail at the C-terminus of NS4A; probably a His tag from pET21b (Ni-NTA purification)
T1 sequence (P27958 1027-1657, one chain of several): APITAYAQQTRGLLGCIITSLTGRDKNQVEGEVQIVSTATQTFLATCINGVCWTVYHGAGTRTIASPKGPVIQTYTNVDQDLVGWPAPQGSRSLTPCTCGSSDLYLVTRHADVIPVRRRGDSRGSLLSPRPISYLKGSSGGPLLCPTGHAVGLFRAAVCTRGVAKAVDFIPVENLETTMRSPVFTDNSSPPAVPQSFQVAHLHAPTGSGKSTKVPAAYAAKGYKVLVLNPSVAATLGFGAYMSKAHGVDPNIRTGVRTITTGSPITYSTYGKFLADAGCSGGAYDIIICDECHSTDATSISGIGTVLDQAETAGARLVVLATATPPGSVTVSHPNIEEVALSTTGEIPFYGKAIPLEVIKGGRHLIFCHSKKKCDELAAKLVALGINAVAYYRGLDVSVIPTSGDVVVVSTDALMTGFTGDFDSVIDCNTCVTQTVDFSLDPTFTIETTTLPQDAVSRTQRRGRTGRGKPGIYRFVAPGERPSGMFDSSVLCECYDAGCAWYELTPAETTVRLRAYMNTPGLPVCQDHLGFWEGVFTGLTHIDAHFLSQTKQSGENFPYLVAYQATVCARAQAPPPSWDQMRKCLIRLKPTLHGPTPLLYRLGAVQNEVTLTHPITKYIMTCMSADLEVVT
Source text: The purpose of this in vitro assay was to measure the inhibition of HCV NS3 protease complexes, derived from the BMS strain, H77 strain or J4L6S strain, as described above, by compounds of the present disclosure. This assay provides an indication of how effective compounds of the present disclosure would be in inhibiting HCV NS3 proteolytic activity.
In order to monitor HCV NS3/4A protease activity, an NS3/4A peptide substrate was used. The substrate was RET S1 (Resonance Energy Transfer Depsipeptide Substrate; AnaSpec, Inc. cat #22991)(FRET peptide), described by Taliani et al. in Anal. Biochem. 240(2):60-67 (1996). The sequence of this peptide is loosely based on the NS4A/NS4B natural cleavage site for the HCV NS3 protease except there is an ester linkage rather than an amide bond at the cleavage site. The peptide also contains a fluorescence donor, EDANS, near one end of the peptide and an acceptor, DABCYL, near the other end. The fluorescence of the peptide is quenched by […] resonance energy transfer (RET) between the donor and the acceptor, but as the NS3 protease cleaves the peptide the products are released from RET quenching and the fluorescence of the donor becomes apparent.
The peptide substrate was incubated with one of the three recombinant NS3/4A protease complexes, in the absence or presence of a compound of the present disclosure. The inhibitory effects of a compound were determined by monitoring the formation of fluorescent reaction product in real time using a Cytofluor Series 4000.
Assay buffer: 50 mM HEPES, pH 7.5; 0.15 M NaCl; 0.1% Triton; 15% Glycerol; 10 mM βME. Substrate: 2 μM final concentration (from a 2 mM stock solution in DMSO stored at −20° C.). HCV NS3/4A protease type 1a (1b), 2-3 nM final concentration (from a 5 μM stock solution in 25 mM HEPES, pH 7.5, 20% glycerol, 300 mM NaCl, 0.2% Triton-X100, 10 mM βME). For compounds with potencies approaching the assay limit, the assay was made more sensitive by adding 50 μg/ml Bovine Serum Albumin (Sigma) to the assay buffer and reducing the end protease concentration to 300 pM.
The assay was performed in a 96-well polystyrene black plate from Falcon. Each well contained 25 μl NS3/4A protease complex in assay buffer, 50 μl of a compound of the present disclosure in 10% DMSO/assay buffer and 25 μl substrate in assay buffer. A control (no compound) was also prepared on the same assay plate. The enzyme complex was mixed with compound or control solution for 1 min before initiating the enzymatic reaction by the addition of substrate. The assay plate was read immediately using the Cytofluor Series 4000 (Perspective Biosystems). The instrument was set to read an emission of […] at 25° C. Reactions were generally followed for approximately 15 min.
The percent inhibition was calculated with the following equation: […]
where δF is the change in fluorescence over the linear range of the curve. A non-linear curve fit was applied to the inhibition-concentration data, and the 50% effective concentration (IC50) was calculated by the use of Excel XLfit software using the equation, y=A+((B−A)/(1+((C/x)̂D))).

Sequence of porcine pancreatic elastase (PPE) (P00772 27-266): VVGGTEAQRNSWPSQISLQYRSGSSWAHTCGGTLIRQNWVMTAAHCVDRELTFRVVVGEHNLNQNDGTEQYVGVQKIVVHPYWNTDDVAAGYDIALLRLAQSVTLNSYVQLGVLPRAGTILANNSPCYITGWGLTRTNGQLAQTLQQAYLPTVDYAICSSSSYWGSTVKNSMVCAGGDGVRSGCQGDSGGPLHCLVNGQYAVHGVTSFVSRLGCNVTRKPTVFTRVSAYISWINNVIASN

**Q.** Which IC50 [1] does the source give for COc1ccc2c(O[C@@H]3C[C@H]4C(=O)N[C@]5(C(=O)NS(=O)(=O)C6CC6)C[C@H]5/C=C\CCCCC[C@H](Nc5ccc(OC)nc5)C(=O)N4C3)nccc2c1 (single isomer, unassigned) [Compound 1] here?
**A.** > 25000 nM

**Q.** What about the IC50 (NS3/4A protease complex) of the same molecule?
**A.** 7 nM
